Data published in ChEMBL document CHEMBL3797118, “New Colchicine-Derived Triazoles and Their Influence on Cytotoxicity and Microtubule Morphology” (ACS Med Chem Lett, 2016).
Calls of active or inactive are those of the source. The calls are words filed in the database; no cut-off is given here.

Legend:
[1] = Cytotoxicity against human THP1 cells after 24 hrs by Celltiter-Glo luminescent cell viability assay; format: functional, cell-based; conditions: THP-1, 24 h
Jurkat = experiment: Cytotoxicity against human Jurkat cells after 48 hrs by Celltiter-Glo luminescent cell viability assay; format: functional, cell-based
A549 = experiment: Cytotoxicity against human A549 cells after 48 hrs by Celltiter-Glo luminescent cell viability assay; format: functional, cell-based; conditions: A549, 48 h
HeLa = experiment: Cytotoxicity against human HeLa cells after 48 hrs by Celltiter-Glo luminescent cell viability assay; format: functional, cell-based
[2] = Cytotoxicity against human SKMES1 cells after 48 hrs by Celltiter-Glo luminescent cell viability assay; format: functional, cell-based; conditions: SK-MES-1, 48 h
MDA-MB-231 [3] = experiment: Inhibition of microtubule network formation in human MDA-MB-231 cells at 100 nM after 24 hrs by DAPI staining based immunofluorescence microscopic analysis; format: cell-based
MDA-MB-231 [4] = experiment: Inhibition of microtubule network formation in human MDA-MB-231 cells assessed as centrosome declustering at 100 nM after 24 hrs by DAPI staining based immunofluorescence microscopic analysis; format: cell-based
H1975 = experiment: Inhibition of microtubule network formation in human H1975 cells assessed as centrosome declustering at 500 nM after 24 hrs by DAPI staining based immunofluorescence microscopic analysis; format: cell-based

For `COc1cc2c(c(OC)c1OC)-c1ccc(OC)c(=O)cc1[C@@H](n1cc(COC(=O)[C@@H](NC(=O)OC(C)(C)C)C(C)C)nn1)CC2`, the IC50 [1] was 8.1 nM.

Work on `COc1cc2c(c(OC)c1OC)-c1ccc(OC)c(=O)cc1[C@@H](n1cc(COC(=O)CCCCCNC(=O)OC(C)(C)C)nn1)CC2` yielded an IC50 [1] of 5.4 nM and an IC50 (Jurkat) of 9.4 nM.

In the case of `COc1cc2c(c(OC)c1OC)-c1ccc(OC)c(=O)cc1[C@@H](n1cc(COC(=O)[C@@H](N)Cc3ccccc3)nn1)CC2`, the IC50 [1] is reported as 24 nM and the IC50 (Jurkat) is reported as 25.1 nM.

`COc1cc2c(c(OC)c1OC)-c1ccc(OC)c(=O)cc1[C@@H](NC(C)=O)CC2` [COLCHICINE] gave an IC50 (A549) of 23.9 nM, an IC50 [1] of 20.4 nM and an IC50 (HeLa; read-out: IC50) of 21.8 nM. For the same compound, the IC50 [2] was 18.6 nM and the inhibition (MDA-MB-231 [3]) was “Active”.

Work on `COc1cc2c(c(OC)c1OC)-c1ccc(OC)c(=O)cc1[C@@H](n1cc(CCC(=O)OCc3ccccc3)nn1)CC2` yielded an IC50 [1] of 31 nM.

In the case of `COc1cc2c(c(OC)c1OC)-c1ccc(OC)c(=O)cc1[C@@H](n1cc(CCCCC(=O)OCc3ccccc3)nn1)CC2`, the IC50 [1] is reported as 35.2 nM and the IC50 (Jurkat) is reported as 16.7 nM.

Work on `COc1cc2c(c(OC)c1OC)-c1ccc(OC)c(=O)cc1[C@@H](n1cc(COC(=O)[C@H](CC(C)C)NC(=O)OC(C)(C)C)nn1)CC2` yielded an IC50 [1] of 6.6 nM.

Work on `COc1cc2c(c(OC)c1OC)-c1ccc(OC)c(=O)cc1[C@@H](n1cc(C(=O)OCc3ccccc3)nn1)CC2` yielded an IC50 [1] of 140 nM.

For `COc1cc2c(c(OC)c1OC)-c1ccc(OC)c(=O)cc1[C@@H](n1cc(COC(=O)[C@H](Cc3ccccc3)NC(=O)OCc3ccccc3)nn1)CC2`, the IC50 [1] was 23.3 nM and the IC50 (Jurkat) was 21.4 nM.

With `CC[C@H](C)[C@H](NC(=O)OC(C)(C)C)C(=O)OCc1cn([C@H]2CCc3cc(OC)c(OC)c(OC)c3-c3ccc(OC)c(=O)cc32)nn1` the IC50 [1] was 17.3 nM.

Compound `COc1cc2c(c(OC)c1OC)-c1ccc(OC)c(=O)cc1[C@@H](n1cc(CCC(=O)OCc3ccccc3F)nn1)CC2` has an IC50 [1] of 12.7 nM and an IC50 (Jurkat) of 9.7 nM.

For `COc1cc2c(c(OC)c1OC)-c1ccc(OC)c(=O)cc1[C@@H](n1cc(COC(=O)CCNC(=O)OC(C)(C)C)nn1)CC2`, the IC50 (A549) was 25.4 nM, the IC50 [1] was 5.7 nM and the IC50 (Jurkat) was 5 nM. For the same compound, the IC50 (HeLa; read-out: IC50) was 20 nM, the IC50 [2] was 9.6 nM and the inhibition (MDA-MB-231 [3]) was “Active”.

With `COc1cc2c(c(OC)c1OC)-c1ccc(OC)c(=O)cc1[C@@H](n1cc(CCC(=O)OCc3cccc(F)c3)nn1)CC2` the IC50 [1] was 9.3 nM and the IC50 (Jurkat) was 4.9 nM.

Compound `CC(=O)O[C@H]1C(=O)[C@@]2(C)[C@H]([C@H](OC(=O)c3ccccc3)[C@]3(O)C[C@H](OC(=O)[C@H](O)[C@@H](NC(=O)c4ccccc4)c4ccccc4)C(C)=C1C3(C)C)[C@]1(OC(C)=O)CO[C@@H]1C[C@@H]2O` [PACLITAXEL] has an IC50 (A549) of 13.2 nM, an IC50 (HeLa) of 18.9 nM and an IC50 [2] of 13.5 nM. The inhibition (MDA-MB-231 [3]) was “inactive”.

In the case of `COc1cc2c(c(OC)c1OC)-c1ccc(OC)c(=O)cc1[C@@H](n1cc(COC(=O)[C@H](Cc3ccccc3)NC(C)=O)nn1)CC2`, the IC50 [1] is reported as 25.5 nM and the IC50 (Jurkat) is reported as 84.2 nM.

Compound `COc1cc2c(c(OC)c1OC)-c1ccc(OC)c(=O)cc1[C@@H](N=[N+]=[N-])CC2` has an IC50 [1] of 20.9 nM.

For `COc1cc2c(c(OC)c1OC)-c1ccc(OC)c(=O)cc1[C@@H](n1cc(COC(=O)[C@H](Cc3ccccc3)NC(=O)OC(C)(C)C)nn1)CC2`, the IC50 (A549) was 73.7 nM, the IC50 [1] was 4.1 nM and the IC50 (Jurkat) was 15.3 nM. The inhibition (MDA-MB-231 [4]) was “Active”, the IC50 (HeLa; read-out: IC50) was 70.7 nM and the IC50 [2] was 39.2 nM. The inhibition (H1975) was “Active” and the inhibition (MDA-MB-231 [3]) was “Active”.

With `COc1cc2c(c(OC)c1OC)-c1ccc(OC)c(=O)cc1[C@@H](n1cc(COC(=O)[C@H](CCSC)NC(=O)OC(C)(C)C)nn1)CC2` the IC50 [1] was 10.6 nM.

`COc1cc2c(c(OC)c1OC)-c1ccc(OC)c(=O)cc1[C@@H](n1cc(COC(=O)[C@H](Cc3c[nH]c4ccccc34)NC(=O)OC(C)(C)C)nn1)CC2` showed an IC50 [1] of 7.3 nM.

For `COc1cc2c(c(OC)c1OC)-c1ccc(OC)c(=O)cc1[C@@H](n1cc(CNC(=O)OC(C)(C)C)nn1)CC2`, the IC50 [1] was 23.1 nM.

Work on `COc1cc2c(c(OC)c1OC)-c1ccc(OC)c(=O)cc1[C@@H](n1cc(CCC(=O)OCc3ccc(F)cc3)nn1)CC2` yielded an IC50 (A549) of 5.5 nM, an IC50 [1] of 5.1 nM and an IC50 (Jurkat) of 2.9 nM. The IC50 (HeLa; read-out: IC50) was 4.9 nM, the IC50 [2] was 3.5 nM and the inhibition (MDA-MB-231 [3]) was “Active”.
